Experimental data taken from US7144903B2, “CCR4 antagonists” (Amgen Inc., priority 2001, dated 2006).

Target: T1, CCR4 (Homo sapiens, UniProt P51679)
T1 construct: cells expressing CCR4 (e.g., CEM cells, available from the ATCC); host or cells: CEM cells
T1 sequence (P51679 1-360): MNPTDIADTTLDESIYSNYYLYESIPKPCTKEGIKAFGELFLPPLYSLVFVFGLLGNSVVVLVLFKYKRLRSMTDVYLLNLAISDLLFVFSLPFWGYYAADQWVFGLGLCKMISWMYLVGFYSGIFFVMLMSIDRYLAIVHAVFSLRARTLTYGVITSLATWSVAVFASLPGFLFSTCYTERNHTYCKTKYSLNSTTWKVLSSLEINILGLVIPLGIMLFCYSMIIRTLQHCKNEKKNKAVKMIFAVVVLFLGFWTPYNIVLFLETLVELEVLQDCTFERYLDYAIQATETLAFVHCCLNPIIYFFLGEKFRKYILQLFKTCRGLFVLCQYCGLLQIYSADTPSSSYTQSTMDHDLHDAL
Experiment: CCR4 binding assay: inhibition of 125I-TARC binding to cells expressing CCR4 (e.g., CEM cells)
Details: not given
From the text: This example illustrates a CCR4 binding assay that can be used for evaluating the compounds of the present invention.
Detection of Radiolabelled TARC and/or MDC Binding to CCR4
^125I-labelled TARC and MDC are available from commercial sources (e.g., Amersham-Pharmacia or Perkin Elmer Life Sciences). All buffers and materials are available from commercial sources (e.g., Gibco BRL, Sigma). To measure binding of ^125I-TARC or ^125I-MDC to cells expressing CCR4 (e.g., CEM cells, available from the ATCC), the ^125I-TARC or ^125I-MDC is diluted to a concentration of approximately 200 pM in a buffered saline solution (e.g., RPMI supplemented with 0.5% bovine serum albumin), and added to an equal volume of a suspension of cells (e.g., CEM cells at 5×10^6 cells/mL). The resulting mixture is incubated for a period of time (e.g., 2 hours). The unbound ^125I-TARC or ^125I-MDC is separated from the cells by filtration, e.g., by passage through GF/B filter plate (Packard Biosciences) pre-treated with 0.3% polyethyleneimine (Sigma), using a Packard Filtermate 96 (Packard Biosciences). The amount of ^125I-TARC or ^125I-MDC retained with the cells on the filterplate is measured by adding a small amount of scintillation fluid (e.g., 50 μL of Microscint-20, obtained from Packard Biosciences), and reading scintillation on appropriate detection equipment, e.g., a Packard TopCount 383 (Packard Biosciences).
Non-specific binding of ^125I-TARC or ^125I-MDC can be estimated by measuring the amount of ^125I-TARC or ^125I-MDC retained with the cells on the filterplate when the assay is performed in the presence of a large excess of unlabelled TARC or MDC.
Inhibition of ^125I-TARC or ^125I-MDC binding to CCR4 is defined as a decrease in the retention of ^125I-TARC or ^125I-MDC to the cells on the filterplate.
The assay described above varies only moderately from standardly used procedures, e.g., Imai et al. (1997) J. Biol. Chem. 272:15036–15042, Imai et al. (1998) J. Biol. Chem. 273:1764–1768.

Row | Compound | IC50
1 | Clc1ccc2nc(Nc3cccc4ccccc34)sc2c1 [Compound 18] | > 1000 nM

Same assay, conditions: CCR4 antagonist activity, inhibition of 125I-TARC binding; read-out: IC50

Row | Compound | IC50
2 | CC(C)(C)c1csc(Nc2ccccc2N2CCOCC2)n1 [Compound 1] | < 1000 nM
3 | Cc1cccc(Nc2nc(C(C)(C)C)cs2)c1C [Compound 2] | > 1000 nM
4 | CC(C)(C)c1csc(NCc2ccccc2)n1 [Compound 3] | < 1000 nM
5 | CC(C)(C)c1csc(Nc2ccc(Cl)c3ccccc23)n1 [Compound 4] | < 1000 nM
6 | CC(C)(C)c1csc(Nc2cccc3c2CCCC3)n1 [Compound 5] | > 1000 nM
7 | Cc1c(Br)cccc1Nc1nc(C(C)(C)C)cs1 [Compound 6] | > 1000 nM
8 | CC(C)(C)c1csc(Nc2cccc3ncccc23)n1 [Compound 7] | < 1000 nM
9 | CC(C)(C)Cc1csc(Nc2cccc3ccccc23)n1 [Compound 8] | > 1000 nM
10 | CCCc1sc(Nc2cccc3ccccc23)nc1C(C)(C)C [Compound 9] | > 1000 nM
11 | Cc1sc(Nc2cccc3ccccc23)nc1C(C)(C)C [Compound 10] | > 1000 nM
12 | CC(C)(C)c1csc(Nc2cccc3ccccc23)n1 [Compound 11] | > 1000 nM
13 | CC(C)c1csc(Nc2cccc3ccccc23)n1 [Compound 12] | > 1000 nM
14 | CCOC(=O)CC(C)(C)c1csc(Nc2cccc3ccccc23)n1 [Compound 13] | > 1000 nM
15 | CC(=O)c1csc(Nc2cccc3ccccc23)n1 [Compound 15, 4-Acetoyl-2-naphthylamino thiazole] | > 1000 nM
16 | c1ccc(CN2CCc3sc(Nc4cccc5ccccc45)nc3C2)cc1 [Compound 19] | < 1000 nM
17 | CC(C)(C)c1csc(Nc2cccnc2CCCC2CCCC2)n1 [Compound 20, (4-tert-Butyl-thiazol-2-yl)-[2-(3-cyclopentyl-propyl)-pyridin-3-yl]-amine] | > 1000 nM
18 | Cn1ccc2c(Nc3nc(C(C)(C)C)cs3)cccc21 [Compound 21, (4-tert-Butyl-thiazol-2-yl)-(1-methyl-1H-indol-4-yl)-amine] | < 1000 nM
19 | Cn1ccc2c(Nc3nc(CN(Cc4ccccc4OC(F)(F)F)CC4CCCCC4)cs3)cccc21 [Compound 24, (4-{[Cyclohexylmethyl-(2-trifluoromethoxy-benzyl)-amino]-methyl}-thiazol-2-yl)-(1-methyl-1H-indol-4-yl)-amine] | < 1000 nM
20 | FC(F)(F)c1ccccc1CN(Cc1csc(Nc2cccc3ncccc23)n1)CC1CCCCC1 [Compound 35] | < 1000 nM
21 | Cc1cccc(Nc2nc(CN(CC(C)C)CC(C)C)co2)c1C [Compound 45, {4-[(Diisobutylamino)-methyl]-oxazol-2-yl}-(2,3-dimethyl-phenyl)-amine] | < 1000 nM
22 | CC(C)CCCc1ccccc1Nc1nc(C(C)(C)C)cs1 [Compound 49] | < 1000 nM
